Reference: patent US20120237567A1, “MODULATING LYMPHATIC FUNCTION” (THE GENERAL HOSPITAL CORPORATION, priority 2004, published 2012)

Experiments:
[1] = test system: mouse tail lymphatic network (initial lymphatics); experiment: Mouse tail microlymphangiography with residence time distribution (RTD) analysis of lymphatic function; assay type: in vivo, mice (C57BL/6); conditions: for overall lymphatic fluid velocity in the dermal lymphatic network: collecting lymphatics not ligated
Experimental: Studies were carried out in 7-10 week old female C57BL/6 and nude mice. Forty-eight mice were used for these experiments: sixteen for the inhibition experiments, fifteen for the ligation experiment, and seventeen additional controls. All procedures were carried out following the guidelines of the Institutional Animal Care and Use Committee of the Massachusetts General Hospital.
Mice in the experimental groups 5 and 6 underwent ligation of the deep collecting lymphatic vessels of the tail immediately before the microlymphangiography, to avoid development of edema (FIG. 1). Mice were anesthetized intramuscularly (90 mg/kg Ketamine and 9 mg/kg Xylazine) and placed on a heated surgical microscopy table. The translucent deep collecting lymphatic vessels were separated from the tail veins with microsurgical forceps through small, bilateral incisions in the axial direction, and ligated with a 10-O non-absorbable suture (Prolene, Ethicon, N.J., United States). The incision site was closed with surgical glue, taking care to avoid circumferential tension on the tail that could interfere with superficial lymphatic function.
Fluorescence intensity measurements were carried out using RTD analysis as described previously (Swartz et al., Am J Physiol. 1996, 270:H324-H329). Briefly, mice were anesthetized intramuscularly (90 mg/kg Ketamine and 9 mg/kg Xylazine) and placed on a small plate. 2.5% FITC-dextran (MW=2 million; Sigma, St. Louis, Mo.) in PBS was infused into the interstitial tissue of the tail tip, with a constant pressure of 40 cm H2O via a 30-gauge needle. […] The mouse was transferred to an epifluorescence microscopy setup as described previously (Leu et al., Am J Physiol. 1994, 267:H1507-H1513). […] The temporally consecutive fluorescent images were analyzed offline using NIH Image Analysis software. The average fluorescence intensity was determined for each image, and used to calculate the mean residence time for each region, the overall lymph fluid velocity in the tail lymphatic network, and the mean LV diameter.

[2] = parameters: species or system C57BL/6 mice; conditions: mouse, in vivo
Experimental: 8 week old, female C57BL/6 mice were weighed and anesthetized (90 mg/kg Ketamine and 9 mg/kg Xylazine). Mean arterial pressure (MAP) was measured by cannulating the exposed left carotid artery with a PE-10 intravascular polyethylene catheter, connected to a pressure transducer (Gould Inc, Valley View, Ohio).

[3] = 3 days of treatment, not ligated, mean±SE
[4] = after ligation of the collecting lymphatics, 3 days of treatment, mean±SE

MAP (mean arterial pressure) [2]	Compound	overall lymphatic fluid velocity in the dermal lymphatic network ([1]; 3 days of treatment, mean±SE)	injection rate of the fluorescent tracer into the interstitium [1, 3]	mean lymphatic vessel diameter [1, 3]	decrease of overall lymphatic fluid velocity compared to controls that had received D-NMMA ([1]; 3 days of L-NMMA treatment, not ligated)	injection rate [1, 4]	mean lymphatic vessel diameter [1, 4]	lymphatic fluid velocity compared with controls treated with D-NMMA or AP (FIG. 2A) ([1]; not ligated, result in words)	mean lymphatic vessel diameter compared with controls (FIG. 2C) ([1]; not ligated, result in words)
	CN=C(N)NCCC[C@@H](N)C(=O)O [D-NMMA]	8.7±0.4 μm/s	15.7 ± 1.5 nL/min	61.6±1.6 μm					
71.7±1.4 mmHg	CNC(=N)NCCC[C@H](N)C(=O)O [L-NMMA, NG-monomethyl-L-arginine]	5.1±0.6 μm/s	11.3 ± 1.2 nL/min	61.5±0.7 μm	42%	25.0 ± 1.3 nL/min	77.2±2.1 μm	significantly lower	not different
